The assay has as its system wild-type ZIKV (Ugandan MR766 strain) in Vero cells. The assay can be described thus: ZIKV cytopathic effect (CPE) inhibition qHTS assay, CellTiter-Glo readout. It counts as cell-based, Zika virus. The following applies: for Emax: read-out: Max response. (In general: Protection from cytopathic effect is a common read-out in antiviral testing.)
Setting [1] is: Zika virus, Vero, read-out: Log AC50 (M) (converted).
Where [2] appears, read: Zika virus, Vero, read-out: Log AC50 (converted).

Where two headings read alike, the source gives them in different places. Some results are limits rather than exact numbers.

The results in this text go back to publication PMC8765781, “A platform of assays for the discovery of anti-Zika small-molecules with activity in a 3D-bioprinted outer-blood-retina model” (PLoS ONE, 2022).

With `CC(=O)OC[C@]12C[C@H](OC(=O)CC(C)C)C(C)=C[C@H]1O[C@@H]1[C@H](O)C[C@@]2(C)[C@]12CO2` [NCGC00385002-01], the Efficacy is listed as -46.392, the “Log AC50 (M)” value was -5.6492 M and the “Max Resp” value was -19.758. The AC50 (read-out: AC50) was found to be 2.24e-06 M.
For the compound `CC(=O)O[C@H]1CC2C(COC(=O)CC(C)C)=CO[C@@H](OC(=O)CC(C)C)C2[C@]12CO2` (stereo partly drawn) [NCGC00385012-01], the “CC-v2 (curve class classification of the dose response curve)” value (from here on “CC-v2”) is given as -3 and the Efficacy is reported as -34.82. Also, for the setting “Zika virus, Vero”, the AC50 came to 3.17e-05 M. Moreover, under setting [1], the AC50 is 3.17e-05 M.
On to `C/C=C/c1ccc2oc(-c3ccc(O)c(OC)c3)c(C)c2c1` [NCGC00385078-01], for which the “CC-v2” value was -3 and the Efficacy is recorded as -53.705. Half-maximal activity (Zika virus, Vero) (AC50) was put at 2.31e-05 M. In addition, under setting [1], the AC50 is 2.31e-05 M.
Take `CC(=O)OC12C(O)C(C)C3(O)C4C=C(C)C(=O)C4CC(CO)=CC3C1C2(C)C` (stereo not drawn) [NCGC00385123-01]: the “CC-v2” value is -3 and the Efficacy is -66.621. Half-maximal activity (Zika virus, Vero) (AC50) was put at 1.12e-05 M. Also, the AC50 under setting [1] is 1.12e-05 M.
Turning to `COC(=O)[C@@]1(C)C(=O)C=C[C@]2(C)c3c(O)cc(C(C)C)cc3[C@H](O)[C@@H](OC(C)=O)C12` (stereo partly drawn) [NCGC00385132-01], the “CC-v2” value is -3 and the Efficacy is reported as -68.661. For the setting “Zika virus, Vero”, this compound returned an AC50 of 1.42e-05 M. The AC50 under setting [1] is 1.42e-05 M.
`CC1CCC2(C(=O)OC3OC(CO)C(O)C(O)C3O)CCC3(C)C(=CCC4C5(C)CCC(O)C(C)(CO)C5CCC43C)C2C1(C)O` (stereo not drawn) [NCGC00385137-01]: the “CC-v2” value is recorded as -3 and the Efficacy was -66.194. Further, where the note is “Zika virus, Vero”, the AC50 amounted to 6.11e-06 M. Besides, the AC50 under setting [1] was 6.11e-06 M.
`CC(C)c1c(O)ccc2c1CC[C@H]1C(C)(C)CCC[C@]21C` [NCGC00385162-01] yielded a Curve class of -3 and an Efficacy of -41.688. For the same compound, for the setting “Zika virus, Vero”, half-maximal activity (AC50) was put at 5.8e-05 M and the Emax was -36.8%. Under setting [2], the AC50 is 5.8e-05 M.
On to `C=C(C(=O)O[C@H]1C/C(C)=C/CC/C(CO)=C/[C@H]2OC(=O)C(=C)[C@H]12)C(O)CO` (stereo partly drawn) [NCGC00385206-01], for which the “CC-v2” value was -3 and the Efficacy was -104.223. The AC50 (Zika virus, Vero) stood at 4.53e-05 M. Further, the AC50 under setting [1] is 4.53e-05 M.
Consider `COc1ccc(CC2C(=O)NC(C)C(=O)N(C)C3Cc4ccc(cc4)Oc4cc(ccc4OC4OC(CO)C(O)C(O)C4O)CC(C(=O)NC(C)C(=O)NC(CCC(=O)O)C(=O)N2C)N(C)C3=O)cc1` (stereo not drawn) [NCGC00385295-01], for which the “CC-v2” value is on record as -2.2 and the Efficacy is given as -76.149. For the same compound, the AC50 (Zika virus, Vero) came to 4.91e-06 M. In addition, the AC50 under setting [1] is 4.91e-06 M.
As to `COc1cc2c(cc1O)C1(Cc3ccc4c(c3C1O)OCO4)[N+](C)([O-])CC2` (stereo not drawn) [NCGC00385471-01], the Efficacy is -50.391. The compound further registered an AC50 (Zika virus, Vero) of 6.4e-07 M. In addition, the AC50 under setting [1] is 6.4e-07 M.
With `C=C1C(=O)O[C@H]2CC(=C)[C@H]3CC[C@@](C)(O)[C@@H]3CC12` (stereo partly drawn) [NCGC00385616-01], the “CC-v2” value was -3 and the Efficacy is reported as -31.171. Under “Zika virus, Vero”, this compound yielded an AC50 of 7.31e-05 M. Further, under setting [1], the AC50 was 7.31e-05 M.
For `C[C@H]1CC[C@@]2(OC1)O[C@H]1CC3[C@@H]4CC[C@@H]5C[C@@H](O[C@@H]6O[C@H](CO)[C@@H](O[C@@H]7O[C@H](CO[C@@H]8OC[C@@H](O)[C@H](O)[C@H]8O)[C@@H](O[C@@H]8O[C@H](CO)[C@H](O)[C@H](O)[C@H]8O)[C@H](O)[C@H]7O)[C@H](O)[C@H]6O)CC[C@]5(C)C4CC[C@]3(C)[C@H]1[C@@H]2C` (stereo partly drawn) [NCGC00385658-01], the AC50 (Zika virus, Vero, from Hill fit of the response curve, 50% of maximum activity response, 194 cherry-picked compounds, protocol name not given, read-out: AC50) came to 3.48e-06 M and the AC50 (Zika virus, Vero, potency in log units (Molar) from Hill fit of the response curve, 194 cherry-picked compounds, protocol name not given, read-out: Log AC50 (converted)) was 3.48e-06 M. Besides, the Efficacy (difference between neutral response and maximum compound response) is given as -25.029.
On to `C=C1C(=O)O[C@@H]2/C=C(\CO)CC/C=C(/C=O)C[C@H](O)[C@@H]12` [NCGC00385803-01], for which the Curve class is reported as -3 and the Efficacy is given as -41.449. Also, where the note is “Zika virus, Vero”, half-maximal activity (AC50) was put at 6.51e-05 M and the Emax is -37.5%. For the same compound, the AC50 under setting [2] was 6.51e-05 M.
`C/C=C(/C)C(=O)OC1CC(C)(C)CC2C3=CCC4C5(C)CCC(O[C@@H]6O[C@H](C(=O)O)[C@@H](O)[C@H](O)[C@H]6O[C@@H]6O[C@H](CO)[C@H](O)[C@H](O[C@@H]7OC[C@H](O)[C@H](O)[C@H]7O[C@@H]7O[C@H](CO)[C@@H](O)[C@H](O)[C@H]7O)[C@H]6O)C(C)(C)C5CCC4(C)C3(C)C(O)C(O)C12CO` (stereo partly drawn) [NCGC00386019-01] came in with an Efficacy of -41.4. The AC50 (Zika virus, Vero) worked out at 9.77e-06 M. Moreover, the AC50 under setting [1] was 9.77e-06 M.
Regarding `CC(C)=CCC/C(C)=C/COCC1OC(n2ccc(=O)[nH]c2=O)C(O)C1O` (stereo not drawn) [NCGC00386057-01], the Efficacy is reported as -46.076. This compound had an AC50 (Zika virus, Vero) of 4.53e-05 M. Under setting [1], the AC50 is 4.53e-05 M.
In turn, `CC1CCC2C(C)(C)C(O)CCC2(C)C12Cc1c(O)cc3c(c1O2)CNC3=N` (stereo not drawn) [NCGC00386084-01] returned an Efficacy of -59.279. Moreover, the AC50 (Zika virus, Vero) stood at 5.08e-07 M. For the same compound, under setting [1], the AC50 was 5.08e-07 M.
With `COc1cccc(C)c1C(=O)O[C@@H]1C[C@H](O[C@H]2[C@H](O)C[C@H](O[C@@H]3CCC[C@H]4[C@H]3C=C[C@@H]3CCCC/C=C/[C@H]5C=C(C(=O)O)[C@@H](C)C[C@@]56OC(=O)C(=C6O)OC(=O)[C@@]34C)O[C@@H]2C)O[C@H](C)[C@H]1O` [NCGC00386109-01], the Efficacy is on record as -37.18. This compound came in with a half-maximal activity concentration (AC50) (Zika virus, Vero) of 1.23e-05 M. In addition, the AC50 under setting [1] was 1.23e-05 M.
Regarding `C=C1/C(=C/C=C2\CCC[C@]3(C)[C@@H]([C@H](C)/C=C/[C@@H](C)C(C)C)CC[C@@H]23)C[C@@H](O)C[C@@H]1O` [NCGC00386145-01], the “CC-v2” value is reported as -3 and the Efficacy was -42.433. Where the note is “Zika virus, Vero”, the AC50 stood at 6.51e-05 M. In addition, under setting [1], the half-maximal activity concentration (AC50) was 6.51e-05 M.
`C=CC(C)(O)CC[C@@H]1[C@@]2(C)CCCC(C)(C)C2CC[C@@]1(C)O` (stereo partly drawn) [NCGC00386171-01] registered an Efficacy of -26.101. For the setting “Zika virus, Vero”, this compound returned an AC50 of 5.8e-05 M. Moreover, under setting [1], the AC50 is 5.8e-05 M.
`C=CC(=O)Nc1ccc2ncnc(Nc3cccc(Br)c3)c2c1` [NCGC00386260-02]: the Curve class was -3 and the Efficacy is -35.975. Further, where the note is “Zika virus, Vero”, half-maximal activity (AC50) was put at 7.31e-05 M and the Emax was -31.6%. Under setting [2], the AC50 is over 4.6e-05 M.
The like results for `Cc1cc(C)c(-c2csc(NC(=O)c3ccccc3)n2)c(C)c1` [NCGC00386342-01] were, in that order, -3, -75.252, 2.31e-05 M, 8.19% and 2.31e-05 M.

Usually AC50 stands for the concentration giving half of the maximal activity seen.
